Data taken from publication PMC11727334, “A self-immolative Kdn-glycoside substrate enables high-throughput screening for inhibitors of Kdnases” (Glycobiology, 2024).

Tests used:
[1] = no reference given; cited from earlier work
AfK = target: T1, AfK (Aspergillus fumigatus, UniProt Q4WQS0); test: Kdnase activity assay: Michaelis-Menten parameters for AfK-catalyzed hydrolysis of substrates; type: biochemical; settings: 100 mM NaOAc pH 4, 0.01% BSA, 21 °C
T1 construct: AfK was expressed and purified as described by Telford et al; made in house
Excerpt: Next, we measured the Michaelis–Menten parameters for AfK-catalyzed hydrolysis of 4 so as to guide assay optimization for the downstream HTS. Specifically, we added stop solution to the AfK-catalyzed reaction at various times and then, after cyclization we measured the fluorescence, which we converted to product concentration using a standard calibration curve (Figs S3–S5, Supporting Information). As expected, our alkyl Kdn glycoside undergoes enzyme-catalyzed hydrolysis with lower rate constants than those for the activated Kdn glycoside 4MU-Kdn. Specifically, the second-order rate constant (kcat/Km) for the AfK-catalyzed hydrolysis of 4 is (4.0 ± 0.8) × 10^3 M^−1 s^−1, while that for 4MU-Kdn (1) is (1.8 ± 0.1) × 10^5 M^−1 s^−1 ([Yeung et al. 2013]) (Table S1, Supporting Information).
The activity of AfK was determined by measuring cleavage of the synthetic Kdnase substrate Kdn-SICL-4MU 4 (Fig. 1). Substrate 4 was incubated at rt for 10 min followed by the addition purified recombinant enzyme. A stop solution containing 100 mM K2CO3 pH ≈ 12 was added at a series of time points starting from 5, 10, 15, 30, 45, 60, 120, 180 min. […] The substrate concentration used ranged of 2–2,000 μM and the amount of 4-methylumbelliferone (4MU) released from 4 was determined using a fluorescence spectrophotometer (BioTek Neo 2) at excitation and emission wavelengths of 360 and 450 nm, respectively. […]

[2] = Base promoted cyclization of liberated aglycon after carbonate stop solution; type: physicochemical; settings: after addition of carbonate stop solution, pH ≈ 10
Procedure: With Kdn glycoside 4 in hand, we began assay development. […] We reasoned that hydroxyl group activation is required for cyclization. We therefore allowed the enzymatic reaction to proceed for 5 min and then raised the pH of the solution to a pH of ≈ 10 by addition of a solution of K2CO3 (Fig. 1D). We opted for this raised pH value because it would both facilitate cyclization releasing the 4MU reporter and also terminate the enzyme-catalyzed substrate hydrolysis. Using this approach, we observed a significant increase in fluorescence attributable to AfK-catalyzed hydrolysis of substrate 4. […] That is, in the absence of Kdnase, no hydroxycarbamate aglycon 6 is formed. […] Thus, >98% of the fluorescence signal is produced within 15 min following addition of the basic buffer (Fig. S2, supporting information).

T1 sequence (Q4WQS0 21-406): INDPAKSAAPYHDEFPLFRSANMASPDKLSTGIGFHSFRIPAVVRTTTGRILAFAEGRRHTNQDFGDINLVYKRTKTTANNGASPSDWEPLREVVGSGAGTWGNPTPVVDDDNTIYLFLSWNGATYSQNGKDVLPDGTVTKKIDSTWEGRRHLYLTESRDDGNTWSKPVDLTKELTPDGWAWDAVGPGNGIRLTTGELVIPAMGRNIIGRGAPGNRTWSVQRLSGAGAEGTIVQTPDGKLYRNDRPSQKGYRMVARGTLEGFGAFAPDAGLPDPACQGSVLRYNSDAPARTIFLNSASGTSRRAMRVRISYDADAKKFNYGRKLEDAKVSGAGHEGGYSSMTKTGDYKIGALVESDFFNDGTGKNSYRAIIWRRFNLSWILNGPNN

In the case of `Cc1cc(=O)oc2cc(O)ccc12` [4MU, 4-methylumbelliferone], the pKa [1] is listed as 8.4.

With `Cc1cc(=O)oc2cc(OC(=O)N(C)CCO[C@]3(C(=O)O)C[C@H](O)[C@@H](O)[C@H]([C@H](O)[C@H](O)CO)O3)ccc12` [compound 4, N-methyl-(N-4′-methylumbelliferylcarbonyl)-2-aminoethyl 3-deoxy-D-glycero-α-D-galacto-non-2-ulopyranosidonic acid] the Km (AfK) was 950 µM and the kcat (AfK) was 3.7 ± 0.2 s–1.

For `Cc1cc(=O)oc2cc(OC(=O)N(C)CCO)ccc12` [compound 6], the “half-life (t1/2) of first-order cyclization” value [2] was “approximately 2.5 min”.
